Measured values from patent publication US20140323300A1, “HERBICIDAL COMPOUNDS” (SYNGENTA LIMITED, priority 2011, published 2014).

Legend:
Type in all cases: in vivo
[1] = tested on: Ipomoea hederacea (IPOHE); test: Post-emergence glasshouse herbicide test; conditions: post-emergence (sprayed after 8 days cultivation), 1000 g/h, evaluated after 13 days, five point scale
Outline: (§1)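 Damage was rated 13 days after treatment on a five-point scale (1 = 0–19%, 5 = 80–100%). The compound, formulated in 50:50 acetone/water with 0.5% Tween 20, was sprayed at 1000 g/h on pots one day (pre) or 8 days (post) after sowing, kept in a glasshouse at 24/16° C, 14 h light, 65% humidity.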

Solanum nigrum (SOLNI) [2] = test: Post-emergence glasshouse herbicide test; conditions: post-emergence (sprayed after 8 days cultivation), 1000 g/h, evaluated after 13 days, five point scale
Outline: as §1

Setaria faberi (SETFA) [3] = test: Post-emergence glasshouse herbicide test; conditions: post-emergence (sprayed after 8 days cultivation), 1000 g/h, evaluated after 13 days, five point scale
Outline: as §1

[4] = tested on: Alopecurus myosuroides (ALOMY); test: Post-emergence glasshouse herbicide test; conditions: post-emergence (sprayed after 8 days cultivation), 1000 g/h, evaluated after 13 days, five point scale
Outline: as §1

[5] = tested on: Amaranthus retoflexus (AMARE); test: Post-emergence glasshouse herbicide test; conditions: post-emergence (sprayed after 8 days cultivation), 1000 g/h, evaluated after 13 days, five point scale
Outline: as §1

[6] = tested on: Echinochloa crus-galli (ECHCG); test: Post-emergence glasshouse herbicide test; conditions: post-emergence (sprayed after 8 days cultivation), 1000 g/h, evaluated after 13 days, five point scale
Outline: as §1

[7] = tested on: Ipomoea hederacea (IPOHE); test: Pre-emergence glasshouse herbicide test; conditions: pre-emergence (sprayed after one day cultivation), 1000 g/h, evaluated after 13 days, five point scale
Outline: as §1

Solanum nigrum (SOLNI) [8] = test: Pre-emergence glasshouse herbicide test; conditions: pre-emergence (sprayed after one day cultivation), 1000 g/h, evaluated after 13 days, five point scale
Outline: as §1

Setaria faberi (SETFA) [9] = test: Pre-emergence glasshouse herbicide test; conditions: pre-emergence (sprayed after one day cultivation), 1000 g/h, evaluated after 13 days, five point scale
Outline: as §1

[10] = tested on: Alopecurus myosuroides (ALOMY); test: Pre-emergence glasshouse herbicide test; conditions: pre-emergence (sprayed after one day cultivation), 1000 g/h, evaluated after 13 days, five point scale
Outline: as §1

[11] = tested on: Amaranthus retoflexus (AMARE); test: Pre-emergence glasshouse herbicide test; conditions: pre-emergence (sprayed after one day cultivation), 1000 g/h, evaluated after 13 days, five point scale
Outline: as §1

[12] = tested on: Echinochloa crus-galli (ECHCG); test: Pre-emergence glasshouse herbicide test; conditions: pre-emergence (sprayed after one day cultivation), 1000 g/h, evaluated after 13 days, five point scale
Outline: as §1

Compound	percentage damage caused to the plant, POST Application IPOHE [1]	percentage damage caused to the plant, POST Application SOLNI (Solanum nigrum (SOLNI) [2])	percentage damage caused to the plant, POST Application SETFA (Setaria faberi (SETFA) [3])	percentage damage caused to the plant, POST Application ALOMY [4]	percentage damage caused to the plant, POST Application AMARE [5]	percentage damage caused to the plant, POST Application ECHCG [6]	percentage damage caused to the plant, PRE Application IPOHE [7]	percentage damage caused to the plant, PRE Application SOLNI (Solanum nigrum (SOLNI) [8])	percentage damage caused to the plant, PRE Application SETFA (Setaria faberi (SETFA) [9])	percentage damage caused to the plant, PRE Application ALOMY [10]	percentage damage caused to the plant, PRE Application AMARE [11]	percentage damage caused to the plant, PRE Application ECHCG [12]
Cc1c(-n2ncc(C#N)c(O)c2=O)ccc(S(C)(=O)=O)c1C1=NOCC1 [Compound 1.026]	5 (5=80-100%)	5 (5=80-100%)	5 (5=80-100%)	1 (1=0-19%)	5 (5=80-100%)	5 (5=80-100%)	5 (5=80-100%)	5 (5=80-100%)	5 (5=80-100%)	1 (1=0-19%)	5 (5=80-100%)	5 (5=80-100%)
Cc1nc(C(F)(F)F)ccc1-n1nccc(O)c1=O.O=C(O)C(F)(F)F [Compound 1.027]	5 (5=80-100%)	5 (5=80-100%)	4 (4=60-79%)	1 (1=0-19%)	4 (4=60-79%)	5 (5=80-100%)	5 (5=80-100%)	5 (5=80-100%)	4 (4=60-79%)	1 (1=0-19%)	4 (4=60-79%)	5 (5=80-100%)
Cc1nc(C(F)(F)F)ccc1-n1ncc(S(C)(=O)=O)c(O)c1=O [Compound 1.029]	2 (2=20-39%)	4 (4=60-79%)	4 (4=60-79%)	1 (1=0-19%)	3 (3=40-59%)	4 (4=60-79%)	2 (2=20-39%)	4 (4=60-79%)	4 (4=60-79%)	1 (1=0-19%)	3 (3=40-59%)	4 (4=60-79%)
Cc1nc(C(F)(F)F)ccc1-n1ncc([S+](C)[O-])c(O)c1=O (stereo not drawn) [Compound 1.030]	3 (3=40-59%)	5 (5=80-100%)	5 (5=80-100%)	2 (2=20-39%)	4 (4=60-79%)	5 (5=80-100%)	3 (3=40-59%)	5 (5=80-100%)	5 (5=80-100%)	2 (2=20-39%)	4 (4=60-79%)	5 (5=80-100%)
CS(=O)(=O)c1cc(C(F)(F)F)ccc1-n1ncc(C2CC2)c(O)c1=O [Compound 1.031]	5 (5=80-100%)	5 (5=80-100%)	5 (5=80-100%)	5 (5=80-100%)	5 (5=80-100%)	5 (5=80-100%)	5 (5=80-100%)	5 (5=80-100%)	5 (5=80-100%)	5 (5=80-100%)	5 (5=80-100%)	5 (5=80-100%)
CS(=O)(=O)c1cc(C(F)(F)F)ccc1-n1ncc(Br)c(O)c1=O [Compound 1.032]	5 (5=80-100%)	5 (5=80-100%)	5 (5=80-100%)	5 (5=80-100%)	5 (5=80-100%)	5 (5=80-100%)	5 (5=80-100%)	5 (5=80-100%)	5 (5=80-100%)	5 (5=80-100%)	5 (5=80-100%)	5 (5=80-100%)
CSc1cnn(-c2ccc(C(F)(F)F)cc2S(C)(=O)=O)c(=O)c1O [Compound 1.034]	4 (4=60-79%)	5 (5=80-100%)	3 (3=40-59%)	1 (1=0-19%)	5 (5=80-100%)	4 (4=60-79%)	4 (4=60-79%)	5 (5=80-100%)	3 (3=40-59%)	1 (1=0-19%)	5 (5=80-100%)	4 (4=60-79%)
CCc1cnn(-c2ccc(C(F)(F)F)nc2S(C)(=O)=O)c(=O)c1O [Compound 1.036]	5 (5=80-100%)	5 (5=80-100%)	5 (5=80-100%)	5 (5=80-100%)	5 (5=80-100%)	5 (5=80-100%)	5 (5=80-100%)	5 (5=80-100%)	5 (5=80-100%)	5 (5=80-100%)	5 (5=80-100%)	5 (5=80-100%)
CCc1cnn(-c2ccc(Cl)cc2S(C)(=O)=O)c(=O)c1O [Compound 1.037]	4 (4=60-79%)	5 (5=80-100%)	5 (5=80-100%)	5 (5=80-100%)	5 (5=80-100%)	5 (5=80-100%)	4 (4=60-79%)	5 (5=80-100%)	5 (5=80-100%)	5 (5=80-100%)	5 (5=80-100%)	5 (5=80-100%)
CCc1ccc(-n2ncc(CC)c(O)c2=O)c(S(C)(=O)=O)c1 [Compound 1.038]	5 (5=80-100%)	5 (5=80-100%)	5 (5=80-100%)	4 (4=60-79%)	5 (5=80-100%)	5 (5=80-100%)	5 (5=80-100%)	5 (5=80-100%)	5 (5=80-100%)	4 (4=60-79%)	5 (5=80-100%)	5 (5=80-100%)
C[S+]([O-])c1cnn(-c2ccc(C(F)(F)F)cc2S(C)(=O)=O)c(=O)c1O (stereo not drawn) [Compound 1.041]	4 (4=60-79%)	5 (5=80-100%)	2 (2=20-39%)	1 (1=0-19%)	5 (5=80-100%)	4 (4=60-79%)	4 (4=60-79%)	5 (5=80-100%)	2 (2=20-39%)	1 (1=0-19%)	5 (5=80-100%)	4 (4=60-79%)
